Results taken from patent publication US5635391A, “Isolated DNA encoding a nitrilase polypeptide, hosts containing, and expression thereof optionally assisted by a E. coli GroE chaperone polypeptide” (priority 1992, dated 1997).

Assays:
E. coli TG1 pXL2035 = experiment: Nitrilase activity of control strain E. coli TG1 pXL2035; type: cell-based; details: no IPTG; whole cells; DW 0.06 g/l; 1 ml; pH 7.0; substrate 50 mM
Description: (§1) The activities of these strains, induced or non-induced, are measured on adiponitrile and 5-cyanovalerate at different pH values and are compared with the negative control strains: E. coli TG1, E. coli TG1 (pXL2035) and Pseudomonas putida G2081.
(§2) The cultures are carried out under the conditions described in Table 4. During the exponential growth phase, one of the two cultures of the recombinant strain is induced with 1 mM IPTG; after 2 h at 37° C., this culture is treated.
(§3) The conditions of the specific activity measurements and the results are collated in Table 5.
(§4) COMMON CONDITIONS: [substrate]=50 mM; T=25° C.; buffer 50 mM; kinetics over 90 min for 1 to 3 and over 120 min for 4 to 8.
(§5) ABBREVIATIONS: W=whole cells; S=sonicated cells; Ua=μmols of cyanovalerate produced/h; Ub=μmols of adipate produced/h; AdN=adiponitrile; CVA=5-cyanovalerate. DW=dry weight.

purified nitrilase [1] = biological target: T1, purified nitrilase (Comamonas testosteroni, UniProt Q59329); experiment: Activity of the purified nitrilase as a function of the pH; type: biochemical, Comamonas testosteroni sp.; details: substrate 10 mM, 25° C., U = μmol of cyanovalerate formed/h
T1 construct: about 280 kDa oligomer of about 38 kDa subunits
Description: The purified nitrilase was tested at different pH values on two substrates, adiponitrile and 5-cyanovalerate, under the conditions indicated in Table 2 below.
COMMON CONDITIONS: [substrate]=10 mM; buffer 10 mM; T 25° C.; [nitrilase]=12 μg/ml for cyanovalerate and 3 μg/ml for adiponitrile (fraction, step 6); U (adiponitrile)=μmol of cyanovalerate formed/h, U (cyanovalerate)=μmol of adipate formed/h.

E. coli TG1 pXL2087 = experiment: Nitrilase activity of recombinant strain E. coli TG1 pXL2087; type: cell-based; details: substrate 50 mM; for Activity Ua: DW 0.3 g/l, pH 4.2
Description: as §1, §2, §3, §4, §5

E. coli TG1 = experiment: Nitrilase activity of control strain E. coli TG1; type: cell-based; details: no IPTG, whole cells, DW 15.5 g/l, 1 ml, substrate 50 mM, 25° C.
Description: as §1, §2, §3, §4, §5

E. coli TG1 pXL2158 = experiment: Nitrilase activity of recombinant strain E. coli TG1 pXL2158; type: cell-based; details: no IPTG; whole cells; DW 0.24 g/l; 1 ml; pH 7.0; substrate 50 mM
Description: as §1, §2, §3, §4, §5

P. putida G2081 pDSK519 = experiment: Nitrilase activity of control strain P. putida G2081 pDSK519; type: cell-based, Pseudomonas putida; details: no IPTG; whole cells; DW 0.3 g/l; 1 ml; pH 7.0; substrate 50 mM
Description: as §1, §2, §3, §4, §5

purified nitrilase [2] = biological target: T1, purified nitrilase; experiment: Relative activity of the purified nitrilase on various nitriles; type: biochemical, Comamonas testosteroni sp.; details: acetate buffer 10 mM, pH 4; substrate 10 mM; 25° C.
Description: The activities of the purified nitrilase were measured on adiponitrile, 5-cyanovaleramide, 5-cyanovaleric acid, benzonitrile, propionitrile and acrylonitrile.
COMMON CONDITIONS: acetate buffer=10 mM, pH 4; substrate=10 mM; volume=3 ml; T=25° C.; reaction time=1 or 3 h; proteins: from 5 to 30 μg/ml.

E. coli (pXL2087) [3] = experiment: Batch hydrolysis of adiponitrile with E. coli (pXL2087) in suspension; type: cell-based; details: pH 7, 25° C., cells 21 g/l
Description: 120 μl or 1068 μmol of adiponitrile were added at 25° C. and with magnetic stirring, at the reaction times 0, 1, 2, 3, 5, 6 and 7 h, to an initial volume of 5 ml of 50 mM phosphate buffer, pH 7, containing the strain E. coli (pXL2087) at an initial concentration of 21 g/l. The reaction was monitored analytically by taking 100 μl samples of the reaction volume every hour.
The mean activities calculated over 30 min after addition of the adiponitrile are collated in Table 6 below.

E. coli (pXL2087) [4] = experiment: Activity of immobilized and free E. coli (pXL2087) cells on adiponitrile; type: cell-based; details: 25° C., pH 7, 50 mM adiponitrile
Description: The cells were fixed according to the following protocol:
The gram of cells was suspended in the polyazetidine solution. After homogenization, the resin was poured into the cell suspension. The whole was stirred with a spatula and then left to dry for 18 h, open to the air, under a hood. 4 ml or 1.3 g of biocatalyst were thus collected. The activities of the immobilized and free cells were determined at 25° C. and pH 7 on a 50 mM solution of adiponitrile. They are respectively 30 and 110 μmol of […]/h/mg of cells DW, from which a fixing yield of 26% is deduced.

E. coli TG1 pXL2035,2158 = experiment: Nitrilase activity of recombinant strain E. coli TG1 pXL2035,2158; type: cell-based; details: no IPTG; whole cells; DW 0.06 g/l; 1 ml; pH 7.0; substrate 50 mM
Description: as §1, §2, §3, §4, §5

[5] = system: Comamonas testosteroni sp.; experiment: Enzymatic activity of Comamonas testosteroni sp. cells on adiponitrile; type: cell-based; details: 52.3 mM adiponitrile, pH 7, 25° C.; 1 U = 1 μmol of product formed per minute
Description: A cellular residue containing 13.1 mg of dry weight of cells was suspended in 2 ml of a 52.3 mM solution of adiponitrile in 50 mM potassium phosphate buffer, pH 7. The reaction was carried out at 25° C., with shaking, and the kinetics were followed by sampling. 5-Cyanovaleramide, adipamide, 5-cyanovalerate, adipamate and adipate were determined on each sample by high performance liquid chromatography (HPLC). […] The respective rates of formation of cyanovalerate and adipate were greater than 0.45 and equal to 0.15 U/mg of dry weight of cells (1 U is equal to 1 μmol of product formed per minute).

T1 sequence (Q59329 entry or part of it): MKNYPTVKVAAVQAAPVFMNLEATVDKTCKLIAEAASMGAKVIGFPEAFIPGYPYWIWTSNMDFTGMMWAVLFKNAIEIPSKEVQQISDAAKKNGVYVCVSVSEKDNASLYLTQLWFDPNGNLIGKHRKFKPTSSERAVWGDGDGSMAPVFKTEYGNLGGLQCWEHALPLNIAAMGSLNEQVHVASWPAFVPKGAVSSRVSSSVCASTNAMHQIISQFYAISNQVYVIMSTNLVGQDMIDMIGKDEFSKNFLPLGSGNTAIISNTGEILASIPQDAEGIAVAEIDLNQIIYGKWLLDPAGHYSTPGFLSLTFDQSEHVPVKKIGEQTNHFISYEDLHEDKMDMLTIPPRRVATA

N#CCCCCC#N [Adiponitrile, adiponitrile]
Activity Ua (E. coli TG1 pXL2035): 0 μmols of cyanovalerate produce
Activity Ub (E. coli TG1 pXL2035): 0 μmols of adipate produced/h
SPECIFIC ACTIVITY (purified nitrilase [1]; Acetate pH 3.0): 2,300 U/mg of protein
SPECIFIC ACTIVITY (purified nitrilase [1]; Acetate pH 4.0): 2,900 U/mg of protein
SPECIFIC ACTIVITY (purified nitrilase [1]; Acetate pH 4.5): 2,800 U/mg of protein
SPECIFIC ACTIVITY (purified nitrilase [1]; Acetate pH 5.0): 2,700 U/mg of protein
SPECIFIC ACTIVITY (purified nitrilase [1]; Phosphate pH 6.0): 2,900 U/mg of protein
SPECIFIC ACTIVITY (purified nitrilase [1]; Phosphate pH 7.0): 2,700 U/mg of protein
SPECIFIC ACTIVITY (purified nitrilase [1]; Phosphate pH 8.0): 2,800 U/mg of protein
Activity Ub (E. coli TG1 pXL2087; +IPTG, sonicated cells, DW 1.4 g/l, 2 ml, pH 6.2): 17 μmols of adipate produced/h
Activity Ub (E. coli TG1 pXL2087; +IPTG, sonicated cells, DW 1.4 g/l, 2 ml, pH 7.0): 10 μmols of adipate produced/h
Activity Ua (E. coli TG1 pXL2087; +IPTG, whole cells, 1 ml): 159 μmols of cyanovalerate produce
Activity Ub (E. coli TG1 pXL2087; +IPTG, whole cells, DW 1.4 g/l, 1 ml, pH 4.3): 38 μmols of adipate produced/h
Activity Ub (E. coli TG1 pXL2087; +IPTG, whole cells, DW 1.4 g/l, 2 ml, pH 6.2): 18 μmols of adipate produced/h
Activity Ub (E. coli TG1 pXL2087; +IPTG, whole cells, DW 1.4 g/l, 2 ml, pH 7.0): 11 μmols of adipate produced/h
Activity Ub (E. coli TG1 pXL2087; no IPTG, sonicated cells, DW 1.0 g/l, 1 ml, pH 6.2): 3 μmols of adipate produced/h
Activity Ub (E. coli TG1 pXL2087; no IPTG, sonicated cells, DW 1.0 g/l, 1 ml, pH 7.0): 4 μmols of adipate produced/h
Activity Ua (E. coli TG1 pXL2087; no IPTG, whole cells, 1 ml): 75 μmols of cyanovalerate produce
Activity Ub (E. coli TG1 pXL2087; no IPTG, whole cells, DW 1.2 g/l, 2 ml, pH 4.3): 16 μmols of adipate produced/h
Activity Ub (E. coli TG1 pXL2087; no IPTG, whole cells, DW 1.2 g/l, 2 ml, pH 6.2): 11 μmols of adipate produced/h
Activity Ub (E. coli TG1 pXL2087; no IPTG, whole cells, DW 1.2 g/l, 2 ml, pH 7.0): 3.4 μmols of adipate produced/h
Activity Ub (E. coli TG1; pH 5.2): 0 μmols of adipate produced/h
Activity Ub (E. coli TG1; pH 7.0): 0 μmols of adipate produced/h
Activity Ua (E. coli TG1 pXL2158): 270 μmols of cyanovalerate produce
Activity Ua (P. putida G2081 pDSK519): 0 μmols of cyanovalerate produce
RELATIVE ACTIVITY (purified nitrilase [2]): 100%
SPECIFIC ACTIVITY (mean over 30 min after addition of adiponitrile) (E. coli (pXL2087) [3]; reaction time 0.5 h): 16 μmol of adipate/h x mg of dry cells
SPECIFIC ACTIVITY (mean over 30 min after addition of adiponitrile) (E. coli (pXL2087) [3]; reaction time 2.5 h): 15 μmol of adipate/h x mg of dry cells
SPECIFIC ACTIVITY (mean over 30 min after addition of adiponitrile) (E. coli (pXL2087) [3]; reaction time 5.5 h): 11 μmol of adipate/h x mg of dry cells
SPECIFIC ACTIVITY (mean over 30 min after addition of adiponitrile) (E. coli (pXL2087) [3]; reaction time 6.5 h): 11 μmol of adipate/h x mg of dry cells
SPECIFIC ACTIVITY (mean over 30 min after addition of adiponitrile) (E. coli (pXL2087) [3]; reaction time 7.7 h): 15 μmol of adipate/h x mg of dry cells
activity of the free cells (E. coli (pXL2087) [4]): 110 μmol of 2-cyanovalerate/h/mg of cells DW
activity of the immobilized cells (E. coli (pXL2087) [4]): 30 μmol of 2-cyanovalerate/h/mg of cells DW
Activity Ua (E. coli TG1 pXL2035,2158): 1500 μmols of cyanovalerate produce
rate of formation of adipate [5]: 0.15 U/mg of dry weight of cells
rate of formation of cyanovalerate [5]: greater than 0.45 U/mg of dry weight of cells
